Experiments:
[1] = biological target: T1, human ETA receptors (Homo sapiens, UniProt P25101); test: Endothelin binding inhibition, Binding Test #1: competition with 125I-ET-1 for ETA receptors on TE 671 cell membranes
T1 construct: endogenous in cells; host or cells: TE 671 cells (ATCC HTB 139), membrane preparation
T1 sequence (P25101 21-427): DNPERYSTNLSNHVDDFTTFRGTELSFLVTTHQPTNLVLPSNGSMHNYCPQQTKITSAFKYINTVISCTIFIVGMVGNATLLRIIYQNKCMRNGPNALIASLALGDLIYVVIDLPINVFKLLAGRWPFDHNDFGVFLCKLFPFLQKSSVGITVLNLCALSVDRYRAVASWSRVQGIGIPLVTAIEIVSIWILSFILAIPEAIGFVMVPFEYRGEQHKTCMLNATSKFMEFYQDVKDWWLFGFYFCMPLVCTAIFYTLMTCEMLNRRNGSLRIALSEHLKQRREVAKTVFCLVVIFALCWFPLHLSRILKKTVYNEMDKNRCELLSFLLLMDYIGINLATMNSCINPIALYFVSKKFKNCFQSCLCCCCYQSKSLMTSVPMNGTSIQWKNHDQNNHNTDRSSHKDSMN

[2] = biological target: T2, human ETB receptor (Homo sapiens, UniProt P24530); test: Endothelin binding inhibition, Binding Test #2: competition with 125I-ET-1 for ETB receptors on transfected COS7 cell membranes
T2 construct: expressed in transfected cells; host or cells: COS7 cells
T2 sequence (P24530 27-442): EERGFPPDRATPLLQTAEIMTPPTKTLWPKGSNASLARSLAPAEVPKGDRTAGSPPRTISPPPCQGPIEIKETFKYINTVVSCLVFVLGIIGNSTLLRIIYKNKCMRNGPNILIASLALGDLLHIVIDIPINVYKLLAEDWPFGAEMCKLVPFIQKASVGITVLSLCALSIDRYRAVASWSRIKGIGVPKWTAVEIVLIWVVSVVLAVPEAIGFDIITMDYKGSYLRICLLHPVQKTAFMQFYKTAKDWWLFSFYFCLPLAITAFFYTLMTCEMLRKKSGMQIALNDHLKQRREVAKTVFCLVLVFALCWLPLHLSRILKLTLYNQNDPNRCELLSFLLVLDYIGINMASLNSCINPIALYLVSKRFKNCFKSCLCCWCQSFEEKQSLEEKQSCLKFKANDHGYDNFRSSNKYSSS
Outline: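 Membranes from COS7 cells transfected with human ETB receptor, prepared in HEPES pH 7.4 with aprotinin, MnCl2/DNase treatment at 37° C for 30 min. Test compounds compete with 125I-labeled ET-1 for receptor binding; membrane used at 1 μg/50 μL binding buffer.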

[3] = incubation at 24° C. (values marked †)
[4] = incubation at 4° C. (values without †)

SMILES | IC50 [1, 3] [nM] | IC50 [2, 3] [nM] | IC50 [2, 4] [nM] | IC50 [1, 4] [nM]
Cc1noc(NS(=O)(=O)c2ccsc2CC(O)c2ccc3c(c2)OCO3)c1Cl (stereo not drawn) [N-(4-chloro-3-methyl-5-isoxazolyl)-2-[β-hydroxy(3,4-methylenedioxy)phenylethyl]thiophene-3-sulfonamide] | 53 | 16000 | – | –
Cc1noc(NS(=O)(=O)c2sccc2CC=Cc2cc3c(cc2COC2CCCCO2)OCO3)c1Br (centres unmarked) [N-(4-bromo-3-methyl-5-isoxazolyl)-3-{2-[(tetrahydro-4H-pyran-2-yloxy)methyl]-4,5-(methylenedioxy)cinnamyl}thiophene-2-sulfonamide] | 96.7 | – | 4140 | –
Cc1noc(NS(=O)(=O)c2csc(-c3ccccc3C=O)c2)c1Br [N-(4-bromo-3-methyl-5-isoxazolyl)-5-(2-formylphenyl)thiophene-3-sulfonamide] | 12300 | 1280 ± 710 | 529 | 3460
COc1ccccc1-c1ccsc1S(=O)(=O)Nc1onc(C)c1Br [N-(4-bromo-3-methyl-5-isoxazolyl)-3-(2-methoxyphenyl)thiophene-2-sulfonamide] | 1710 | 59100 | – | –
Cc1ccccc1OC(=O)c1sccc1S(=O)(=O)Nc1onc(C)c1Br [N-(4-bromo-3-methyl-5-isoxazolyl)-2-[(2-methylphenoxy)carbonyl]thiophene-3-sulfonamide] | 684 | 105000 | – | –
Cc1noc(NS(=O)(=O)c2ccsc2CC2(c3ccc4c(c3)OCO4)OCCO2)c1Cl [N-(4-chloro-3-methyl-5-isoxazolyl)-2-[β,β-(ethylenedioxy)-3,4-(methylenedioxy)phenethyl]thiophene-3-sulfonamide] | 128 | 2090 | – | –
CCCc1cc2c(cc1OC(=O)c1sccc1S(=O)(=O)Nc1onc(C)c1Br)OCO2 [N-(4-bromo-3-methyl-5-isoxazolyl)-2-{[2-propyl-4,5-(methylenedioxy)phenoxy]carbonyl}thiophene-3-sulfonamide] | 138 | 11900 | – | –
COc1ccc(OC(=O)c2sccc2S(=O)(=O)Nc2onc(C)c2Br)cc1 [N-(4-bromo-3-methyl-5-isoxazolyl)-2-[(4-methoxylphenoxy)carbonyl]thiophene-3-sulfonamide] | 1730 | 111000 | – | –
CCCCc1ccc(-c2ccsc2S(=O)(=O)Nc2onc(C)c2Br)cc1 [N-(4-bromo-3-methyl-5-isoxazolyl)-3-(4-butylphenyl)thiophene-2-sulfonamide] | – | 6110 | – | 160
Cc1ccc(C=CCc2ccsc2S(=O)(=O)Nc2onc(C)c2Br)c(C)c1 [N-(4-bromo-3-methyl-5-isoxazolyl)-3-(2,4-dimethylcinnamyl)thiophene-2-sulfonamide] | 180 | 2970 | – | –
Cc1cccc(-c2ccsc2S(=O)(=O)Nc2onc(C)c2Br)c1 [N-(4-bromo-3-methyl-5-isoxazolyl)-3-(3-tolyl)thiophene-2-sulfonamide] | 832 | 21200 | – | –
Cc1ccc(CC(=O)c2sccc2S(=O)(=O)Nc2onc(C)c2Br)cc1 [N-(4-bromo-3-methyl-5-isoxazolyl)-2-[(4-methylphenyl)acetyl]thiophene-3-sulfonamide] | 198 | 9130 | – | –
Cc1cc(C)c(NC(=O)c2sccc2S(=O)(=O)Nc2onc(C)c2C)c(C)c1CO [N-(3,4-dimethyl-5-isoxazolyl)-2-(3-hydroxymethyl-2,4,6-trimethylphenylaminocarbonyl)thiophene-3-sulfonamide] | 1.11 | 33800 | – | –
Cc1cc(C)c(CC(=O)c2sccc2S(=O)(=O)Nc2onc(C)c2Cl)c(C)c1 [N-(4-chloro-3-methyl-5-isoxazolyl)-2-(2,4,6-trimethylphenylacetyl)thiophene-3-sulfonamide] | 0.238 | 3820 | – | –
Cc1ccc(-c2ccsc2S(=O)(=O)Nc2onc(C)c2Br)c(C)c1 [N-(4-bromo-3-methyl-5-isoxazolyl)-3-(2,4-dimethylphenyl)thiophene-2-sulfonamide] | 100 | 60300 | – | –

— US6632829B2, “Sulfonamides and derivatives thereof that modulate the activity of endothelin” (Texas Biotechnology Corp., priority 1996, dated 2003)
